Measurements from publication PMC11638965, “Leveraging Dual-Ligase Recruitment to Enhance Protein Degradation via a Heterotrivalent Proteolysis Targeting Chimera” (Journal of the American Chemical Society, 2024).
Entries after “also recorded” stand apart in the source; their conditions may differ.

Key:
[1] = system: HiBiT-BRD4 and HaloTag-CRBN; assay: NanoBRET live cell ternary complex formation assay; type: cell-based, human; settings: for ternary complex formation between BRD4 and CRBN (in words): HiBiT-BRD4 HEK293 cells, HaloTag-CRBN, MG132 pretreatment, 0.01, 0.1 and 1 μM, 3.5 h; for time to plateau of ternary complex signal with CRBN: NanoBRET, HiBiT-BRD4 HEK293 cells with HaloTag-CRBN
Experimental: (§1) NanoBRET ternary complex assays were performed using Promega kits for CRBN (ND2720) and VHL (ND2700) according to manufacturer’s instructions. One day prior to the assay, HEK293 HiBiT-BRD4 (LgBiT Stable) were plated at a density of 800,000 cells/well in a 6-well plate. Cells were allowed to adhere for at least 4 h. Transfection mixtures containing 100 μL Opti-MEM, 6 μL FuGENE HD, and either 2 μg HaloTag-CRBN or HaloTag-VHL were prepared and allowed to incubate for 10 min at room temperature prior to addition to the cells. The next day, cells were trypsinized and resuspended in phenol red-free Opti-MEM Reduced Serum Medium supplemented with 4% FBS. Cells were counted and density was adjusted to 200,000 cells/mL. Cells were divided into two pools: one which received HaloTag NanoBRET 618 Ligand at a final concentration of 100 nM and one which received the same volume of DMSO. Cells were plated on white tissue-culture 96-well plates (100 μL/well) and allowed to adhere overnight. The next day, media was aspirated from the cells and replaced with phenol red-free Opti-MEM Reduced Serum medium supplemented with 4% FBS and a 1:100 dilution of Nano-Glo Vivazine substrate (Promega) and 10 μM MG132. Luminescence was allowed to equilibrate at 37 °C, 5% CO2 for 1 h. During this time, a dilution series of each PROTAC at 10x the desired final concentration was prepared (keeping DMSO constant in all concentrations). 10 μL of this dilution series was added to the plate after luminescence equilibration, and kinetic measurements of donor emission at 460 nm and acceptor emission at 618 nm were collected every 3 min using a ClarioStar plate reader. milliBRET ratios were calculated as (Emission at 618 nm/Emission at 460 nm) × 1000. Donor-contributed background or bleedthrough was corrected for by subtracting milliBRET ratios from no ligand control cells from treated cells. Corrected milliBRET ratios were plotted as a function of time in GraphPad Prism.

[2] = system: HiBiT-BRD4 and HaloTag-VHL; assay: NanoBRET live cell ternary complex formation assay; type: cell-based, human; settings: HiBiT-BRD4 HEK293 cells, MG132 pretreatment, 0.01, 0.1 and 1 μM, 3.5 h
Experimental: as §1

HEK293 cells = assay: TMT mass spectrometry proteomics; type: cell-based, Human; settings: 250 nM, 4 h; for proteins significantly depleted/downregulated, proteome-wide: 7276 proteins detected, relative to DMSO
Experimental: S-Trap micro spin column digestion was performed according to the manufacturer’s protocol. Briefly, HEK293 cells were treated with DMSO, 250 nM neg-cis-AB3067 (95) or 250 nM AB3067 (27) for 4 h; cells were harvested and washed with PBS and spun. Cell pellets were solubilized in 5% SDS, 50 mM triethylammonium bicarbonate, reduced with 100 mM DTT solution and alkylated with iodoacetamide to a final concentration of 40 mM. Aqueous phosphoric acid was added to a final concentration of 1.2%. Protein particulate was formed by adding S-Trap binding buffer [90% aqueous methanol, 100 mM TEAB (pH 7.1)]. The mixture was placed on S-Trap micro 1.7 mL columns and centrifuged at 4000 × g for 10 s. Columns were washed with 150 μL of S-Trap binding buffer five times and centrifuged at 4000 × g for 10 s. Samples were digested with 2 μg of trypsin (Promega) at 37 °C for four h. Peptides were eluted with 40 μL of 50 mM TEAB followed by 40 μL of 0.2% aqueous formic acid, and peptides were finally vacuum-dried. TMT15plex labeling of DMSO, 250 nM neg-cis-AB3067 (95) or 250 nM AB3067 (27) conditions were performed, with five biological replicates for each condition and peptide cleanup was performed according to the manufacturer’s protocol. After checking the labeling efficiency, samples were combined, desalted, and dried under vacuum. TMT samples were fractionated using offline high-pH reverse-phase chromatography. Peptides were separated, concatenated to 22 fractions, dried, and peptides redissolved in 5% formic acid and analyzed by LC–MS.
The raw mass spectrometric data were loaded into MaxQuant. Enzyme specificity was set to that of trypsin/P, allowing for cleavage of N-terminal to proline residues and between aspartic acid and proline residues. Other parameters used were as follows: (i) variable modifications—methionine oxidation, protein N-acetylation; (ii) fixed modifications, cysteine carbamidomethylation; (iii) database: Uniprot; -Human (iv) labels: 15-plex TMT (v) MS/MS tolerance: FTMS- 20 ppm, (vi) minimum peptide length, 7; (vii) maximum missed cleavages, 2; and (viii) and (ix) PSM and Protein false discovery rate, 1%. Reporter ion intensities (corrected) results from MaxQuant were imported into excel for bioinformatic analysis. The normalized corrected reporter ion intensities for each label were used to calculate ratios, and all “Contaminant,″ “Reverse”, and “Only identified by site” proteins were removed from the data. Proteins above or below twofold change [log2(2) = 1], and a nominal p-value less than 0.03 [−log10(0.03) = 1.5] were considered as differentially expressed proteins. The final volcano plot was produced in GraphPad prism 10 version [10.2.2].

| SMILES | ternary complex formation between BRD4 and CRBN (in words) [1] | time to plateau of ternary complex signal with CRBN [1] | ternary complex formation between BRD4 and VHL (in words) [2] | ternary complex formation between BRD4 and CRBN (in words) ([1]; listed as 27) | ternary complex formation between BRD4 and VHL (in words) ([2]; listed as 27) | CRBN abundance (HEK293 cells) | EID2 abundance (HEK293 cells) | proteins significantly depleted/downregulated, proteome-wide (HEK293 cells) |
| --- | --- | --- | --- | --- | --- | --- | --- | --- |
| Cc1ncsc1-c1ccc(CNC(=O)[C@@H]2C[C@@H](O)CN2C(=O)[C@@H](NC(=O)COCC(C)(COCCOCCOCCNc2cc3c(cc2F)C(=O)N(C2CCC(=O)NC2=O)C3=O)COCCOCCOCCOC(=O)C[C@@H]2N=C(c3ccc(Cl)cc3)c3c(sc(C)c3C)-n3c(C)nnc32)C(C)(C)C)cc1 (mixture of isomers) [AB3063 (26), (17S)-11-((2-(2-(2-((2-(2,6-dioxopiperidin-3-yl)-6-fluoro-1,3-dioxoisoindolin-5-yl)amino)ethoxy)ethoxy)ethoxy)methyl)-17-((2S,4R)-4-hydroxy-2-((4-(4-methylthiazol-5-yl)benzyl)carbamoyl)pyrrolidine-1-carbonyl)-11,18,18-trimethyl-15-oxo-3,6,9,13-tetraoxa-16-azanonadecyl 2-((S)-4-(4-chlorophenyl)-2,3,9-trimethyl-6H-thieno[3,2-f][1,2,4]triazolo[4,3-a][1,4]diazepin-6-yl)acetate] | can engage and form ternary complexes | 30 min | can engage and form ternary complexes |  |  |  |  |  |
| Cc1ncsc1-c1ccc([C@H](C)NC(=O)[C@@H]2C[C@@H](O)CN2C(=O)[C@@H](NC(=O)COCC(C)(COCCOCCOCCNc2cc3c(cc2F)C(=O)N(C2CCC(=O)NC2=O)C3=O)COCCOCCOCCOC(=O)C[C@@H]2N=C(c3ccc(Cl)cc3)c3c(sc(C)c3C)-n3c(C)nnc32)C(C)(C)C)cc1 (mixture of isomers) [AB3067 (27), (17S)-11-((2-(2-(2-((2-(2,6-dioxopiperidin-3-yl)-6-fluoro-1,3-dioxoisoindolin-5-yl)amino)ethoxy)ethoxy)ethoxy)methyl)-17-((2S,4R)-4-hydroxy-2-(((S)-1-(4-(4-methylthiazol-5-yl)phenyl)ethyl)carbamoyl)pyrrolidine-1-carbonyl)-11,18,18-trimethyl-15-oxo-3,6,9,13-tetraoxa-16-azanonadecyl 2-((S)-4-(4-chlorophenyl)-2,3,9-trimethyl-6H-thieno[3,2-f][1,2,4]triazolo[4,3-a][1,4]diazepin-6-yl)acetate] |  | 30 min |  | can engage and form ternary complexes; also recorded: more robust dose–response with both VHL and CRBN than 26 | can engage and form ternary complexes; also recorded: more robust dose–response with both VHL and CRBN than 26 | not significantly depleted | significantly downregulated | all three BET proteins, BRD2, BRD3 and BRD4, were significantly depleted |
| Cc1ncsc1-c1ccc([C@H](C)NC(=O)[C@@H]2C[C@H](O)CN2C(=O)[C@@H](NC(=O)COCC(C)(COCCOCCOCCNc2cc3c(cc2F)C(=O)N(C2CCC(=O)N(C)C2=O)C3=O)COCCOCCOCCOC(=O)C[C@@H]2N=C(c3ccc(Cl)cc3)c3c(sc(C)c3C)-n3c(C)nnc32)C(C)(C)C)cc1 (mixture of isomers) [neg-cis-AB3067 (95), (17S)-11-((2-(2-(2-((6-fluoro-2-(1-methyl-2,6-dioxopiperidin-3-yl)-1,3-dioxoisoindolin-5-yl)amino)ethoxy)ethoxy)ethoxy)methyl)-17-((2S,4S)-4-hydroxy-2-(((S)-1-(4-(4-methylthiazol-5-yl)phenyl)ethyl)carbamoyl)pyrrolidine-1-carbonyl)-11,18,18-trimethyl-15-oxo-3,6,9,13-tetraoxa-16-azanonadecyl 2-((S)-4-(4-chlorophenyl)-2,3,9-trimethyl-6H-thieno[3,2-f][1,2,4]triazolo[4,3-a][1,4]diazepin-6-yl)acetate] |  |  |  |  |  |  |  | no protein was significantly downregulated |
